# Measured values taken from PubChem BioAssay AID1963860 (Molecular Pharmacology Branch, DTP, NCI, 2024).
# Test system: CN0375-F725-PDC KRAS spheroid viability
# Assay: Anticancer human tumor CN0375-F725-PDC patient-derived colon carcinoma cell line growth inhibition [KRAS2]
# Conditions: spheroids with HUVEC and MSC; for IC50: curve of first compound; for viability, T/C: stronger effect = lower value
# In short: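 Combination screen of spheroid viability in tumor-cell co-cultures with endothelial (HUVEC) and mesenchymal stem cell stroma. Each agent was tested in half-log dilutions, topping at clinical Cmax or at 10 microM without a known Cmax.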
# [1] = second compound 0.1 µM, first compound 0.000316 µM
# [2] = second compound 0.1 µM, first compound 0.001 µM
# [3] = second compound 0.1 µM, first compound 0.00316 µM
# [4] = second compound 0.1 µM, first compound 0.01 µM
# [5] = second compound 0.1 µM, first compound 0.0316 µM
# [6] = second compound 0.1 µM, first compound 0.1 µM
# [7] = second compound 0.316 µM, first compound 0.000316 µM
# [8] = second compound 0.316 µM, first compound 0.001 µM
# [9] = second compound 0.316 µM, first compound 0.00316 µM
# [10] = second compound 0.316 µM, first compound 0.01 µM
# [11] = second compound 0.316 µM, first compound 0.0316 µM
# [12] = second compound 0.316 µM, first compound 0.1 µM
# [13] = second compound 1 µM, first compound 0.000316 µM
# [14] = second compound 1 µM, first compound 0.001 µM
# [15] = second compound 1 µM, first compound 0.00316 µM
# [16] = second compound 1 µM, first compound 0.01 µM
# [17] = second compound 1 µM, first compound 0.0316 µM
# [18] = second compound 1 µM, first compound 0.1 µM
# [19] = second compound 3.16 µM, first compound 0.000316 µM
# [20] = second compound 3.16 µM, first compound 0.001 µM
# [21] = second compound 3.16 µM, first compound 0.00316 µM
# [22] = second compound 3.16 µM, first compound 0.01 µM
# [23] = second compound 3.16 µM, first compound 0.0316 µM
# [24] = second compound 3.16 µM, first compound 0.1 µM
# [25] = second compound 10 µM, first compound 0.000316 µM
# [26] = second compound 10 µM, first compound 0.001 µM
# [27] = second compound 10 µM, first compound 0.00316 µM
# [28] = second compound 10 µM, first compound 0.01 µM
# [29] = second compound 10 µM, first compound 0.0316 µM
# [30] = second compound 10 µM, first compound 0.1 µM
# 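Note: spheroids exposed to agents for 7 days.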
Structure (SMILES),IC50 (second compound 0.1 µM),IC50 (second compound 0.316 µM),IC50 (second compound 1 µM),IC50 (second compound 3.16 µM),IC50 (second compound 10 µM),"viability, T/C [1]","viability, T/C [2]","viability, T/C [3]","viability, T/C [4]","viability, T/C [5]","viability, T/C [6]","viability, T/C [7]","viability, T/C [11]","viability, T/C [12]","viability, T/C [17]","viability, T/C [18]","viability, T/C [23]","viability, T/C [24]","viability, T/C [29]","viability, T/C [30]",further results
CC(C)n1nc(-c2ccc3oc(N)nc3c2)c2c(N)ncnc21 + CNCc1ccccc1-c1csc(C(C)Nc2nc(C)nc3cc(OC)c(OC)cc23)c1,58 nM,54 nM,1.13 nM,< 0.316 nM,< 0.316 nM,99.7%,93.1%,80%,67%,55.3%,45.4%,91.1%,55.9%,43.2%,37.9%,29%,0.52%,0.44%,0.18%,0.21%,"viability, T/C [8]: 83.9%; viability, T/C [9]: 78.5%; viability, T/C [10]: 67%; viability, T/C [13]: 66.2%; viability, T/C [14]: 49.4%; viability, T/C [15]: 37.8%; viability, T/C [16]: 47.7%; viability, T/C [19]: 0.35%; viability, T/C [20]: 0.36%; viability, T/C [21]: 0.33%; viability, T/C [22]: 0.28%; viability, T/C [25]: 0.13%; viability, T/C [26]: 0.17%; viability, T/C [27]: 0.14%; viability, T/C [28]: 0.15%"
CC1(C)CCC(CN2CCN(c3ccc(C(=O)NS(=O)(=O)c4ccc(NCC5CCOCC5)c([N+](=O)[O-])c4)c(Oc4cnc5[nH]ccc5c4)c3)CC2)=C(c2ccc(Cl)cc2)C1 + CNCc1ccccc1-c1csc(C(C)Nc2nc(C)nc3cc(OC)c(OC)cc23)c1,4810 nM,2830 nM,< 31.6 nM,< 31.6 nM,< 31.6 nM,,,,,104%,104%,,90.7%,95.5%,36.5%,42.3%,0.26%,0.27%,0.12%,0.14%,"viability, T/C (second compound 0.1 µM, first compound 0.316 µM): 103%; viability, T/C (second compound 0.1 µM, first compound 1 µM): 96.2%; viability, T/C (second compound 0.1 µM, first compound 3.16 µM): 61.6%; viability, T/C (second compound 0.1 µM, first compound 10 µM): 29.8%; viability, T/C (second compound 0.316 µM, first compound 0.316 µM): 93.4%; viability, T/C (second compound 0.316 µM, first compound 1 µM): 89.5%; viability, T/C (second compound 0.316 µM, first compound 3.16 µM): 45.9%; viability, T/C (second compound 0.316 µM, first compound 10 µM): 18.7%; viability, T/C (second compound 1 µM, first compound 0.316 µM): 40.7%; viability, T/C (second compound 1 µM, first compound 1 µM): 50.9%; viability, T/C (second compound 1 µM, first compound 3.16 µM): 15.2%; viability, T/C (second compound 1 µM, first compound 10 µM): 7.89%; viability, T/C (second compound 3.16 µM, first compound 0.316 µM): 0.18%; viability, T/C (second compound 3.16 µM, first compound 1 µM): 0.2%; viability, T/C (second compound 3.16 µM, first compound 3.16 µM): 0.25%; viability, T/C (second compound 3.16 µM, first compound 10 µM): 0.68%; viability, T/C (second compound 10 µM, first compound 0.316 µM): 0.13%; viability, T/C (second compound 10 µM, first compound 1 µM): 0.13%; viability, T/C (second compound 10 µM, first compound 3.16 µM): 0.16%; viability, T/C (second compound 10 µM, first compound 10 µM): 0.19%"
Cn1ncnc1[C@H]1c2n[nH]c(=O)c3cc(F)cc(c23)N[C@@H]1c1ccc(F)cc1 + CNCc1ccccc1-c1csc(C(C)Nc2nc(C)nc3cc(OC)c(OC)cc23)c1,> 100 nM,> 100 nM,0.634 nM,< 0.316 nM,< 0.316 nM,107%,106%,97%,95.7%,95.4%,93.6%,100%,91%,88.2%,39.4%,40.6%,0.25%,0.42%,0.13%,0.23%,"viability, T/C [8]: 101%; viability, T/C [9]: 94.5%; viability, T/C [10]: 86.9%; viability, T/C [13]: 54.1%; viability, T/C [14]: 46.2%; viability, T/C [15]: 47.8%; viability, T/C [16]: 41.5%; viability, T/C [19]: 0.23%; viability, T/C [20]: 0.33%; viability, T/C [21]: 0.31%; viability, T/C [22]: 0.28%; viability, T/C [25]: 0.14%; viability, T/C [26]: 0.33%; viability, T/C [27]: 0.13%; viability, T/C [28]: 0.15%"
